Measured values taken from US12479877B2, “Methods for purifying steviol glycosides and uses of the same” (PureCircle Sdn. Bhd., priority 2010, dated 2025).
“Also recorded” adds a separate entry of the source.

How the values were obtained:
Assay type in all cases: in vivo, human
panelists [1] = assay: Sensory properties in acidified water (pH 3.0) at 500 mg/L, 20 panelists; settings: 500 ppm, acidified water pH 3.0, 20 panelists
Experimental: The sensory properties of Reb X were evaluated in acidified water (pH 3.0 by phosphoric acid) at 500 mg/L concentration by 20 panelists.

one experienced panelist = assay: Taste evaluation of Reb X against Reb A and Reb D, multi-sip and swallow taste method; settings: for Taste Properties: 500 ppm in citric buffer (pH 3.22), room temperature
Experimental: The taste properties of a sample of Reb X were studied against Rebaudioside A (Reb A) and Rebaudioside D (Rb D) samples. Rb A was obtained from Cargill (lot #1040) and Reb-D was obtained from PureCircle (lot #11/3/08).
The samples were prepared at 500 ppm for sweetness evaluation by adding moisture compensated mass into a 100 mL sample of carbon-treated water and citric buffer solutions.
Citric buffer was prepared by mixing 1.171 g/L citric acid, 0.275 g/L sodium citrate and 0.185 g/L sodium benzoate with carbon-treated water, with a final pH of 3.22. The mixtures were moderately stirred at room temperature. The Reb X sample was then evaluated against the two control Reb A and Reb D samples in water and citric buffer at room temperature (RT) and at 4° C. in an ice bath by one experienced panelist for any tasting quality determinations using the controlled, multi-sip and swallow taste method shown below:
1. Take first sip (˜1.8 mL) of control and swallow. Wait for 15-25 sec, then take second sip of control and wait for 15-25 sec.
2. Take first sip of the experimental sample, wait for 15-25 sec, then take second sip. Compare to second sip of control.
3. Repeat steps #1 and #2 for the third and fourth sips of the control and experimental samples to confirm the initial finding.
The taste evaluation results of the Reb X samples against the control Reb A and Reb D samples at 500 ppm in citric buffer (CB) at 4° C. and RT are described in Table 4.

panelists [2] = assay: Sensory properties in acidified water (pH 3.0) at 500 mg/L, 20 panelists; settings: 10,000 ppm, acidified water pH 3.0, 20 panelists

Compound | Astringent taste: Number of panelists detected the attribute (panelists [1]) | Bitter taste: Number of panelists detected the attribute (panelists [1]) | Licorice taste: Number of panelists detected the attribute (panelists [1]) | Overall evaluation: Satisfactory (number of panelists of 20) (panelists [1]) | Quality of sweet taste: Bitter aftertaste (number of panelists of 20) (panelists [1]) | Sweet Aftertaste: Number of panelists detected the attribute (panelists [1]) | Taste Properties (one experienced panelist) | Astringent taste: Number of panelists detected the attribute (panelists [2]) | Bitter taste: Number of panelists detected the attribute (panelists [2]) | Licorice taste: Number of panelists detected the attribute (panelists [2]) | Overall evaluation: Satisfactory (number of panelists of 20) (panelists [2]) | Quality of sweet taste: Clean (number of panelists of 20) (panelists [2]) | Sweet Aftertaste: Number of panelists detected the attribute (panelists [2]) | Astringency, sweetness intense (depth) and bitterness notes (one experienced panelist; 500 ppm, citrate buffer system, compared with Reb A)
C=C1C[C@@]23CC[C@H]4[C@@](C)(CCC[C@@]4(C)C(=O)O[C@@H]4O[C@H](CO)[C@@H](O)[C@H](O)[C@H]4O)[C@@H]2CC[C@]1(O[C@@H]1O[C@H](CO)[C@@H](O)[C@H](O[C@@H]2O[C@H](CO)[C@@H](O)[C@H](O)[C@H]2O)[C@H]1O[C@@H]1O[C@H](CO)[C@@H](O)[C@H](O)[C@H]1O)C3 [Reb A, Rebaudioside A] | 20 | 20 | 20 | (1 of 20) | (20 of 20) | 20 | Delayed sweetness onset, significant lingering sweet aftertaste,; also recorded: licorice and bitter off-notes | – | – | – | – | – | – | –
C=C1C[C@@]23CC[C@H]4[C@@](C)(CCC[C@@]4(C)C(=O)O[C@@H]4O[C@H](CO)[C@@H](O)[C@H](O)[C@H]4O)[C@@H]2CC[C@]1(O[C@@H]1O[C@H](CO)[C@@H](O)[C@H](O)[C@H]1O[C@@H]1O[C@H](CO)[C@@H](O)[C@H](O)[C@H]1O)C3 [Stevioside] | 20 | 20 | 20 | (0 of 20) | (20 of 20) | 20 | – | – | – | – | – | – | – | –
OC[C@H]1O[C@@](CO)(O[C@H]2O[C@H](CO)[C@@H](O)[C@H](O)[C@H]2O)[C@@H](O)[C@@H]1O [Sucrose] | – | – | – | – | – | – | – | 0 | 0 | 0 | (20 of 20) | Clean (20 | 0 | –
C=C1C[C@@]23CC[C@H]4[C@@](C)(CCC[C@@]4(C)C(=O)O[C@@H]4O[C@H](CO)[C@@H](O)[C@H](O)[C@H]4O[C@@H]4O[C@H](CO)[C@@H](O)[C@H](O)[C@H]4O)[C@@H]2CC[C@]1(O[C@@H]1O[C@H](CO)[C@@H](O)[C@H](O[C@@H]2O[C@H](CO)[C@@H](O)[C@H](O)[C@H]2O)[C@H]1O[C@@H]1O[C@H](CO)[C@@H](O)[C@H](O)[C@H]1O)C3 [Reb D, Rebaudioside D] | 3 | 3 | 2 | (11 of 20) | – | 5 | Delayed sweetness onset, less sweetness linger as compared to Reb; also recorded: A, no bitter off-notes | – | – | – | – | – | – | did not have the astringency or sweetness intense (depth) and bitterness notes compared to that of the Reb A
